Data reported in publication PMC3171563 (2011).

What was measured:
[1] = target: T1, histone deacetylase 8 (HDAC8) (Homo sapiens, UniProt Q9BY41); assay: Fluor-de-Lys fluorescence deacetylase assay; type: biochemical
T1 sequence (Q9BY41 1-377): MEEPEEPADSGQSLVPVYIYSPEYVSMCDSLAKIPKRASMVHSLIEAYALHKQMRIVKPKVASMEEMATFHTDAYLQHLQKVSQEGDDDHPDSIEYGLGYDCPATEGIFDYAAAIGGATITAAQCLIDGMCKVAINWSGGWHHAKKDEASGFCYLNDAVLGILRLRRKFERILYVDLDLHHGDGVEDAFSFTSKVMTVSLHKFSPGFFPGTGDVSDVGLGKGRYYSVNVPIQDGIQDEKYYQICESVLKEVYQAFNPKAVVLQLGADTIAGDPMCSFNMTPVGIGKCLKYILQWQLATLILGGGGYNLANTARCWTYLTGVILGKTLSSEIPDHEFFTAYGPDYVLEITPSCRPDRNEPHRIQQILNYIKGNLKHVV

[2] = target: acetylpolyamine amidohydrolase (APAH) (Mycoplana ramosa, UniProt Q48935); assay: Fluor-de-Lys fluorescence deacetylase assay; type: biochemical
Chain of acetylpolyamine amidohydrolase (APAH) (Q48935 whole entry): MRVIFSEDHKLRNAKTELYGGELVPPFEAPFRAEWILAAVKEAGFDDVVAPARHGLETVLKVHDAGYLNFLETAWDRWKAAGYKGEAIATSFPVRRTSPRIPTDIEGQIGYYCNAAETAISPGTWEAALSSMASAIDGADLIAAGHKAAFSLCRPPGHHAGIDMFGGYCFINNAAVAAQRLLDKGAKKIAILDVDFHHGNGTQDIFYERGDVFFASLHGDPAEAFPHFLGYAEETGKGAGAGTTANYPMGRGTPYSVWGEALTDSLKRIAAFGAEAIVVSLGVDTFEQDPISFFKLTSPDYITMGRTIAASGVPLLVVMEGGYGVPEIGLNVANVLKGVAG

N[C@@H](CCCCC(=O)C(F)(F)F)C(=O)O [compound 10, (S)-2-amino-8,8,8-trifluoro-7-oxo-octanoic acid]
IC50 [1]: 1.5 ± 0.2 µM
IC50 [2]: 110 ± 30 µM
